Test results: publication PMC12136037, “Type II kinase inhibitors that target Parkinson’s disease–associated LRRK2” (Science Advances, 2025)
Read-outs that look alike come from different tables or passages of the source.

Columns and labels:
Assay in all cases: DSF 100 kinase selectivity screen;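 also: compound tested at 20 µM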
Format in all cases: binding
[1] = target: T1, ~100 representative kinases (Homo sapiens, UniProt P45983); settings: protein MAPK8; average of three replicates
T1 construct: Recombinant protein kinase domains with a concentration of 2 μM
Description: (§1) Recombinant protein kinase domains with a concentration of 2 μM were mixed with a 20 μM compound solution in dimethyl sulfoxide (DMSO), 20 mM Hepes (pH 7.5), and 500 mM NaCl. SYPRO Orange (5000×, Invitrogen) was added as a fluorescence probe (1μl/ml). Subsequently, temperature-dependent protein unfolding profiles were measured using the QuantStudio 5 realtime PCR machine (Thermo Fisher Scientific, Waltham, MA, USA). […] The temperature was raised with a step rate of 3°C/min. […] Differences in melting temperature are given as ΔTm values in degrees Celsius. […]

[2] = target: T2, ~100 representative kinases (Homo sapiens, UniProt O14936); settings: Protein CASK; average of three replicates
T2 construct: Recombinant protein kinase domains with a concentration of 2 μM
T2 sequence (O14936 1-926): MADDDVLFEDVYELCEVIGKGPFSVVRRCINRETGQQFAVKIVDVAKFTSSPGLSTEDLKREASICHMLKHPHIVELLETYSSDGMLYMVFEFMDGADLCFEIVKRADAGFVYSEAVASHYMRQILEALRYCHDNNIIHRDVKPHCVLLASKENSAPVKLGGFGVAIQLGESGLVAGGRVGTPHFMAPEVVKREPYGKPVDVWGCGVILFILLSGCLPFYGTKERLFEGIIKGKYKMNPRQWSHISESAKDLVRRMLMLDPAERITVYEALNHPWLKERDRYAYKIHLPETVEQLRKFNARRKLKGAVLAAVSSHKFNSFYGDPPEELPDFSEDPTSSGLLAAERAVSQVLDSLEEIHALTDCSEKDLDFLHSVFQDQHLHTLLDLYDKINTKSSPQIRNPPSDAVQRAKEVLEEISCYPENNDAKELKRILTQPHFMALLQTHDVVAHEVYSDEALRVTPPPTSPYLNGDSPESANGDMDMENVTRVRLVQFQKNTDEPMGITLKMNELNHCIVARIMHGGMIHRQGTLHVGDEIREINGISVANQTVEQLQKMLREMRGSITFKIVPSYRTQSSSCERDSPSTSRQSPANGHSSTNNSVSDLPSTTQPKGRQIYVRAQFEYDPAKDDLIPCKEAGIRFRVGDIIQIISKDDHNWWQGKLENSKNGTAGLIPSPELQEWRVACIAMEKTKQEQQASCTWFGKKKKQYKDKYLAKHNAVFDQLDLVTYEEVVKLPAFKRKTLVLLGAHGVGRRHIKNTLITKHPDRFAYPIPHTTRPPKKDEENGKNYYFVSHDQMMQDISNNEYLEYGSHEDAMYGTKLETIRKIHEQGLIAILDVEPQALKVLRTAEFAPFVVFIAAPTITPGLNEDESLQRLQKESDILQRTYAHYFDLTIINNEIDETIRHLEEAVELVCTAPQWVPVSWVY
Description: as §1

[3] = target: T3, ~100 representative kinases (Homo sapiens, UniProt Q13043); settings: Protein STK4; DSF; average of three replicates
T3 construct: Recombinant protein kinase domains with a concentration of 2 μM
T3 sequence (Q13043 1-487): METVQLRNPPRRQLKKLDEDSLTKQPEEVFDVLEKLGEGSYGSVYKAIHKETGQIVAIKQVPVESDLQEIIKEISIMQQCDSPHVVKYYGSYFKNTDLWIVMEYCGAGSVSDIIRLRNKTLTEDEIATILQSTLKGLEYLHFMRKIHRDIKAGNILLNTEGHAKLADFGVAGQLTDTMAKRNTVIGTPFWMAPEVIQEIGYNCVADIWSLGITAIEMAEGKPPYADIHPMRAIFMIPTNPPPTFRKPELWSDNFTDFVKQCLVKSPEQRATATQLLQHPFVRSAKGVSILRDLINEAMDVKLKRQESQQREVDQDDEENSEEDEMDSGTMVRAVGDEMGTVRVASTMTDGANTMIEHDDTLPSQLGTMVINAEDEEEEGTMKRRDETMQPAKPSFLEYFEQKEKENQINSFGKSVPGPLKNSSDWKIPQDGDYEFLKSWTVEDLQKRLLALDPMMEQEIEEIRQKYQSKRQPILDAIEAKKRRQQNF
Description: as §1

[4] = target: T4, ~100 representative kinases (Homo sapiens, UniProt P45984); settings: protein MAPK9; average of three replicates
T4 construct: Recombinant protein kinase domains with a concentration of 2 μM
Description: as §1

[5] = target: T5, ~100 representative kinases (Homo sapiens, UniProt P49841); settings: protein GSK3B; average of three replicates
T5 construct: Recombinant protein kinase domains with a concentration of 2 μM
Description: as §1

[6] = target: T6, ~100 representative kinases (Homo sapiens, UniProt P22830); settings: protein FECH; average of three replicates
T6 construct: Recombinant protein kinase domains with a concentration of 2 μM
T6 sequence (P22830 55-423): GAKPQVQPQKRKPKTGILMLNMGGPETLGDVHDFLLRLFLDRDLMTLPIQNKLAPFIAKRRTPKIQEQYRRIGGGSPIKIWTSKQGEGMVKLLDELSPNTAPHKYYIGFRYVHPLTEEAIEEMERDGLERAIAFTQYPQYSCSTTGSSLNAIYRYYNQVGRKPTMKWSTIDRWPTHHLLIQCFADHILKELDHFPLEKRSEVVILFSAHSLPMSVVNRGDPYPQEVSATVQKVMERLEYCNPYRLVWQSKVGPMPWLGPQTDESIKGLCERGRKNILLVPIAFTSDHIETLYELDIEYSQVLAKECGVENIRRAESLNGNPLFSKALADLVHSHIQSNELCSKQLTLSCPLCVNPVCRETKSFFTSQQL
Description: as §1

[7] = target: T7, ~100 representative kinases (Homo sapiens, UniProt Q16539)
T7 construct: Recombinant protein kinase domains with a concentration of 2 μM
Description: as §1

[8] = target: T8, ~100 representative kinases (Homo sapiens, UniProt P51955); settings: protein NEK2; average of three replicates
T8 construct: Recombinant protein kinase domains with a concentration of 2 μM
T8 sequence (P51955 1-445): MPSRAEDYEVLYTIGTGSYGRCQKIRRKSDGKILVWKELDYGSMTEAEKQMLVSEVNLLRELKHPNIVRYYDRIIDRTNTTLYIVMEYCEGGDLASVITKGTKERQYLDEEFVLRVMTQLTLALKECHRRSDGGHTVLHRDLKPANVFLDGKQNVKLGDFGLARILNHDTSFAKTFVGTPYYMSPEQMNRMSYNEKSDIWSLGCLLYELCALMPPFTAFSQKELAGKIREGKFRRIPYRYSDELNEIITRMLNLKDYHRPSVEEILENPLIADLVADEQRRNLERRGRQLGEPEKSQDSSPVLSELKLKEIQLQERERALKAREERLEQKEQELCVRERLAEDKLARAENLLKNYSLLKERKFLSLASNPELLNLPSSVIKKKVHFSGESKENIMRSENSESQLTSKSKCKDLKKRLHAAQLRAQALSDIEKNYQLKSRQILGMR
Description: as §1

[9] = target: T9, ~100 representative kinases (Homo sapiens, UniProt Q13153); settings: protein PAK1; average of three replicates
T9 construct: Recombinant protein kinase domains with a concentration of 2 μM
Description: as §1

[10] = protein MAPK14, average of three replicates

T1 sequence (P45983 whole entry, the tested form may be a part): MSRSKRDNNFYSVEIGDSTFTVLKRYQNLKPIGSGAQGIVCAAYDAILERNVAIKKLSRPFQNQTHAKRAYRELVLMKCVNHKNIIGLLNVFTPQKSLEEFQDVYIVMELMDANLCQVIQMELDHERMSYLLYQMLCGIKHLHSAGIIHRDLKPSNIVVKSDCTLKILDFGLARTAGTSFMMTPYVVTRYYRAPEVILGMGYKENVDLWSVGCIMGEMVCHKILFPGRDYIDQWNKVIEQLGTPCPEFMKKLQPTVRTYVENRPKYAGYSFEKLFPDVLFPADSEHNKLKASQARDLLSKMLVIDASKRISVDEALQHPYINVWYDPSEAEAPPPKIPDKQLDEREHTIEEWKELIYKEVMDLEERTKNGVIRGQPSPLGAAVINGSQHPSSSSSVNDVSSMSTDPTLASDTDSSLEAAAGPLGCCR
T7 sequence (Q16539 whole entry, the tested form may be a part): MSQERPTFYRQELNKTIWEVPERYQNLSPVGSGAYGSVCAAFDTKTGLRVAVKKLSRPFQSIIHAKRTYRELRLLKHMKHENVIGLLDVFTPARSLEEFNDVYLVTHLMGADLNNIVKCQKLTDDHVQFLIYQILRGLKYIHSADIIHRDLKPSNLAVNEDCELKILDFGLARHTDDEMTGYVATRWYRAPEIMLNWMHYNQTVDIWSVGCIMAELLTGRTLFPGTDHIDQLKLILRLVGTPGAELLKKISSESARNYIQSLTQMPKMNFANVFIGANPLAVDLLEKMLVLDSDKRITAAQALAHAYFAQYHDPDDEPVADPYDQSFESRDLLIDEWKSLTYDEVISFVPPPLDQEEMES
T5 sequence (P49841 whole entry, the tested form may be a part): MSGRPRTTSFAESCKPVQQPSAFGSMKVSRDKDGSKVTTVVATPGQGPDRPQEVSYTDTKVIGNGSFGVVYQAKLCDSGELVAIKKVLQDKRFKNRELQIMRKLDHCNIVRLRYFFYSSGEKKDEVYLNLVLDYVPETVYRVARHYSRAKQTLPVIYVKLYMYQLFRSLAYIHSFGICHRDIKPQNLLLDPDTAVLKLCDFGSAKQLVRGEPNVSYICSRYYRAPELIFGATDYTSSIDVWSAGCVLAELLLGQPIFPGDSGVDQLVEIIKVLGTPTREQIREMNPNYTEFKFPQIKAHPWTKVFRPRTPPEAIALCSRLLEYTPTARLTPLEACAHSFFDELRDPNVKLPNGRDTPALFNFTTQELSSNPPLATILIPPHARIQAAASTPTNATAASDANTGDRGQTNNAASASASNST
T4 sequence (P45984 whole entry, the tested form may be a part): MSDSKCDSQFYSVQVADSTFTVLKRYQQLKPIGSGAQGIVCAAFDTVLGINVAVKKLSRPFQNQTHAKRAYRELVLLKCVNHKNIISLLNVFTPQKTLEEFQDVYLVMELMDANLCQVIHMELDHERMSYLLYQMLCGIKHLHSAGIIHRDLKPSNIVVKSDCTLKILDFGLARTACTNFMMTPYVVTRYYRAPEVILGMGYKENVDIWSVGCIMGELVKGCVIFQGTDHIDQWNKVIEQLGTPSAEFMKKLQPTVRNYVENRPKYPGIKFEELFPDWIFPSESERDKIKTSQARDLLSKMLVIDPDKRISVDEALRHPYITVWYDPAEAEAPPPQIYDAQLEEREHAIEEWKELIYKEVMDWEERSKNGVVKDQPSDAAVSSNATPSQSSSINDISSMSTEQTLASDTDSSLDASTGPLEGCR
T9 sequence (Q13153 whole entry, the tested form may be a part): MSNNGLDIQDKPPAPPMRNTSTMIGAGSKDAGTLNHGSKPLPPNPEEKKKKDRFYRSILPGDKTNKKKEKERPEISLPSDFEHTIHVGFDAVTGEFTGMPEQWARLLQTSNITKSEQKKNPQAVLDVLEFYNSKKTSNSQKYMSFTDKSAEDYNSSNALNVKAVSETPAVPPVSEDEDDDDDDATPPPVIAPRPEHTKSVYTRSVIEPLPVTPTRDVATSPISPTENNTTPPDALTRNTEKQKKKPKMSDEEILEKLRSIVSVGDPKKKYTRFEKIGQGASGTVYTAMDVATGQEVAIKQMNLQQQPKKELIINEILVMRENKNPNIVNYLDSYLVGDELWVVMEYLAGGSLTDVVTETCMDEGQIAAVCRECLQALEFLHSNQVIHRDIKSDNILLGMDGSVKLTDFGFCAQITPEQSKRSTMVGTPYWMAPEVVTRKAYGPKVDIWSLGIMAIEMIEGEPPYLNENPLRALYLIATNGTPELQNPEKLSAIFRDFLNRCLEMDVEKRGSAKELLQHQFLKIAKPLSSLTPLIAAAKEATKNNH

| Compound | dTm [1] | dTm [2] | dTm [3] | dTm [4] | dTm [5] | dTm [6] | dTm [7, 10] | dTm [8] | dTm [9] | dTm [7] |
| --- | --- | --- | --- | --- | --- | --- | --- | --- | --- | --- |
| Cc1ccc(C(=O)Nc2ccc(CN3CCN(C)CC3)c(C(F)(F)F)c2)cc1C#Cc1c[nH]c2ncnc(N3CCOCC3)c12 [Compound 1] | 2.18 K | 1.18 K | 7.61 K | 5.51 K | 1.72 K | 0.00 K | 5.43 K | 4.11 K | 1.52 K | – |
| O=C(Nc1ccc(F)cc1)C1(C(=O)Nc2cccc(-c3c[nH]c4ncnc(N5CCOCC5)c34)c2)CC1 [Compound 2] | 1.17 K | 0.30 K | 5.05 K | 2.87 K | 6.47 K | -0.03 K | 0.08 K | 0.52 K | 2.06 K | – |
| Cc1cc(NC(=O)C2(C(=O)Nc3ccc(F)cc3)CC2)cc(-c2c[nH]c3ncnc(N4CCOCC4)c23)c1 [Compound 6] | 2.19 K | 0.76 K | 0.00 K | 2.51 K | 3.83 K | -0.18 K | 1.61 K | 0.05 K | 1.55 K | – |
| O=C(Nc1cccc(-c2c[nH]c3ncnc(N4CCOCC4)c23)c1)C1(C(=O)Nc2cccc3c2CCC3)CC1 [Compound 11] | 2.36 K | -5.15 K | -11.70 K | 4.16 K | 8.12 K | -8.36 K | 1.60 K | -1.56 K | 3.04 K | – |
| Cc1ccc(-n2nc(C(C)(C)C)cc2NC(=O)Nc2cccc(-c3c[nH]c4nc(Cl)nc(N5CCOCC5)c34)c2)cc1 [Compound 30] | 1.42 K | -0.47 K | 4.23 K | 3.39 K | – | -11.52 K | 2.81 K | -0.71 K | 0.76 K | – |
| Cc1ccc(C(=O)Nc2ccc(CN3CCN(C)CC3)c(C(F)(F)F)c2)cc1C#Cc1cnc2[nH]ncc2c1 [GZD-824, reference compound] | 4.08 K | -2.40 K | 4.50 K | 4.93 K | 4.71 K | – | – | 0.45 K | 4.19 K | 17.66 K |
| C[C@@H]1CN(c2cc(-c3n[nH]c4ccc(OC5(C)CC5)cc34)ncn2)C[C@H](C)O1 [MLi2] | 0.56 K | 0.19 K | -0.67 K | 0.30 K | 0.56 K | – | 0.038 K | -0.21 K | -0.13 K | – |
| Cn1cc(-c2c[nH]c3ncnc(N4CCOCC4)c23)cc1C#N [PFE-360] | 0.89 K | 0.12 K | 4.12 K | 0.17 K | 5.50 K | – | 0.53 K | – | -0.19 K | – |
| Cc1ccc(C(=O)Nc2ccc(CN3CCN(C)CC3)c(C(F)(F)F)c2)cc1C#Cc1cnc2cccnn12 [Ponatinib, reference compound] | – | – | – | – | – | – | 12.52 K | – | – | – |
| CN[C@@H]1C[C@H]2O[C@@](C)([C@@H]1OC)n1c3ccccc3c3c4c(c5c6ccccc6n2c5c31)C(=O)NC4 [Staurosporine] | – | – | – | – | – | – | – | 4.25 K | 7.21 K | – |

More lines, main results first:

| dTm [1] | dTm [2] | dTm [3] | dTm [4] | dTm [5] | dTm [6] | dTm [7, 10] | dTm [8] | dTm [9] | Compound | dTm [7] |
| --- | --- | --- | --- | --- | --- | --- | --- | --- | --- | --- |
| 3.47 K | -0.18 K | 7.31 K | 5.57 K | 5.10 K | 2.76 K | 1.17 K | 0.47 K | 4.33 K | O=C(Nc1cccc(-c2c[nH]c3ncnc(N4CCOCC4)c23)c1)c1cccn(-c2ccc(F)cc2)c1=O [Compound 4] | – |
| 4.13 K | 0.14 K | 8.44 K | -1.39 K | – | -10.48 K | 5.90 K | -0.44 K | 3.58 K | Cc1ccc(-n2nc(C(C)(C)C)cc2NC(=O)Nc2cccc(-c3c[nH]c4ncnc(N5CCOCC5)c34)c2)cc1 [Compound 29] | – |
| 0.84 K | -2.83 K | 4.59 K | 5.47 K | – | -9.46 K | 3.92 K | -1.71 K | 0.00835 K | CC(=O)N1CCN(c2nc(Cl)nc3[nH]cc(-c4cccc(NC(=O)Nc5cc(C(C)(C)C)nn5-c5ccc(C)cc5)c4)c23)CC1 [Compound 31] | – |
| 5.54 K | -0.72 K | -1.57 K | 2.71 K | – | -1.01 K | -0.75 K | -0.68 K | -1.33 K | COc1cc(C(=O)N2CCOCC2)c(F)cc1Nc1nc(N(C)C)c2c(Cl)c[nH]c2n1 [Compound 36] | – |
| 3.54 K | -0.21 K | -0.52 K | 0.96 K | – | -0.93 K | -0.35 K | -1.77 K | -0.88 K | COc1cc(S(C)(=O)=O)ccc1Nc1nc(N(C)C)c2c(Cl)c[nH]c2n1 [Compound 37] | – |
| 0.60 K | 0.33 K | 0.31 K | 0.58 K | 3.70 K | – | 0.16 K | 0.39 K | -0.11 K | CCNc1nc(Nc2cc(F)c(C(=O)N3CCOCC3)cc2OC)ncc1C(F)(F)F [GNE-7915] | – |
